Data on two compounds can be found in EP4778918A1, “RADIOACTIVE POSITRON-EMITTING NUCLIDE CARBON-11 LABELED COMPOUND AND RADIOACTIVE COMPOSITION” (The University of Osaka, priority 2023, dated 2025).

In data set [1] the test system is autoimmune myocarditis model rats. As to the kind of experiment: Anti-VLA-4 neutralizing antibody or AJM300 administration in rat autoimmune myocarditis model (cardiac function). The data set is classed as in vivo, Lewis rats. The conditions noted are these: 21 days after induction of myocarditis; diet with 1% AJM300, or 5 mg/kg antibody intravenously at 0w, 1w, 2w, 3w; compared with placebo group.
Description: Study groups were: placebo group (5 animals), AJM300-administered group (4 animals), and neutralizing antibody-administered group (5 animals) administered with anti-VLA-4-neutralizing antibody. The placebo group was fed a diet mixed with placebo (0.43% METOLOSE + 0.14% Ac-Di-Sol) from 3 days before induction of myocarditis to 3 weeks. The AJM300-administered group was fed a diet mixed with 1% AJM300 from 3 days before induction of myocarditis to 3 weeks. The neutralizing antibody-administered group was intravenously administered with 5 mg/kg of neutralizing antibody at the time of induction of myocarditis (0w), 1 week after induction of myocarditis (1w), 2 weeks after induction of myocarditis (2w), and 3 weeks after induction of myocarditis (3w). Left ventricular contractile performance and heart rate were evaluated 21 days after induction of myocarditis.

A further data set relates to MRL-Pdcd1-/- mice. Description: Administration of VLA4 inhibitor AJM300 to myocarditis model mice (survival, echocardiography). The data set is classed as in vivo. The conditions noted are these: compared with AJM300(-) group. Here is the method: The AJM300 group (+) was administered with a mixed diet containing 1% of AJM300 from 2 weeks of age until death.
At 28 days of age, 9 mice in the AJM300(-) group and 10 mice in the AJM300(+) group were evaluated for cardiac function by echocardiography and then euthanized to collect heart and blood samples.

In a further data set the test system is PD1-/- mice. As to the kind of experiment: Determination of therapeutic effect on myocarditis by PET/CT with [^11C]HCA2969 tracer. The data set is classed as in vivo. Here is the method:
Groups of wild-type mice, placebo PD1-/- mice, AJM300-administered PD1-/- mice and anti-VLA-4 neutralizing antibody-administered PD 1-/- mice at 4 weeks of age were prepared. The placebo group was fed a normal diet and the AJM300-administered group was fed a diet containing 1% AJM300 from day 14 to day 28 after the start of rearing. The anti-VLA-4 neutralizing antibody-administered group was fed a normal diet and administered with anti-VLA -4 neutralizing antibody (10 mg/kg) intraperitoneally on days 14 and 21 after the start of rearing. On day 28 after the start of rearing, each mouse was anesthetized with isoflurane (1 to 3% in 2 L of O2) and injected with a [^11C]HCA2969 tracer (1 to 10 MBq: 10 µg of unlabeled HCA2969 containing 10 MBq of PET tracer) via a tail vein. Twenty minutes after the injection, PET/CT imaging was performed for 10 minutes.

Data set [2] can be described thus: Stability of the produced [^11C]HCA2969 over time (quality test, radiochemical purity). It counts as physicochemical. The conditions noted are these: immediately after synthesis and even 90 minutes after synthesis; final formulation, approximately 10% ethanol in physiological saline. From the text: [^11C]HCA2969 was produced according to the following procedure. A synthesis scheme is shown in FIG. 1. • (1) [^11C]CO2 was produced via nuclear reaction of ^14N(p,α)^11C using N2 gas as a target using a medical cyclotron (CYPRIS HM-18, Sumitomo Heavy Industries, Ltd.). The obtained [^11C]CO2 was introduced into a vapor phase method methyl iodide synthesizer (C-GPC-100, Sumitomo Heavy Industries, Ltd.) to synthesize […] ([^11C]CH3OTf) having high reaction activity. • (2) [^11C]CH3OTf was introduced into a reaction vessel containing 500 µL of a solution of 1 mg/mL HCA2969 precursor (QD) in acetone and 3 µL of 1 mol/L NaOH and subjected to bubbling. • (3) 100 µL of 0.1 mol/L NaOH was added to the solution obtained after the bubbling in the above step (2) and a deprotection reaction was performed at room temperature for 10 minutes. • (4) 1 mL of water for injection was added to the solution obtained after the deprotection in the above step (3), the mixture was mixed thoroughly, and the whole volume was injected into HPLC to fractionate and collect [^11C]HCA2969. A representative HPLC chromatogram is shown in FIG. 2. • (5) The fractionated and collected solution was diluted with water for injection, and the whole volume was introduced into a solid-phase extraction column (HLB column) to retain [^11C]HCA2969. […]

For data set [3], the system named is MRL-Pdcd1-/- and wild-type mice. Description: Detection of myocarditis by PET/CT imaging with [^11C]HCA2969 tracer in mice. It counts as in vivo. The conditions noted are these: about 1 to 10 MBq intravenously, days 25 to 26. Here is the method:
In the MRL-Pdcd1-/- and wild-type mice prepared in the above section 5, a [^11C]HCA2969 tracer (about 1 to 10 MBq) was administered intravenously via a tail vein under inhalation anesthesia with isoflurane on days 25 to 26, followed by PET/CT imaging.

The test system of a further data set is EAE mice. Conditions: mouse, in vivo.
The target in a further data set is T1, VLA-4 (Mus musculus, UniProt P09055+Q00651).
T1 construct: monocytes collected from a spleen of a mouse; endogenous in cells; host or cells: primary monocytes from mouse spleen
T1 sequence (Q00651 41-1039): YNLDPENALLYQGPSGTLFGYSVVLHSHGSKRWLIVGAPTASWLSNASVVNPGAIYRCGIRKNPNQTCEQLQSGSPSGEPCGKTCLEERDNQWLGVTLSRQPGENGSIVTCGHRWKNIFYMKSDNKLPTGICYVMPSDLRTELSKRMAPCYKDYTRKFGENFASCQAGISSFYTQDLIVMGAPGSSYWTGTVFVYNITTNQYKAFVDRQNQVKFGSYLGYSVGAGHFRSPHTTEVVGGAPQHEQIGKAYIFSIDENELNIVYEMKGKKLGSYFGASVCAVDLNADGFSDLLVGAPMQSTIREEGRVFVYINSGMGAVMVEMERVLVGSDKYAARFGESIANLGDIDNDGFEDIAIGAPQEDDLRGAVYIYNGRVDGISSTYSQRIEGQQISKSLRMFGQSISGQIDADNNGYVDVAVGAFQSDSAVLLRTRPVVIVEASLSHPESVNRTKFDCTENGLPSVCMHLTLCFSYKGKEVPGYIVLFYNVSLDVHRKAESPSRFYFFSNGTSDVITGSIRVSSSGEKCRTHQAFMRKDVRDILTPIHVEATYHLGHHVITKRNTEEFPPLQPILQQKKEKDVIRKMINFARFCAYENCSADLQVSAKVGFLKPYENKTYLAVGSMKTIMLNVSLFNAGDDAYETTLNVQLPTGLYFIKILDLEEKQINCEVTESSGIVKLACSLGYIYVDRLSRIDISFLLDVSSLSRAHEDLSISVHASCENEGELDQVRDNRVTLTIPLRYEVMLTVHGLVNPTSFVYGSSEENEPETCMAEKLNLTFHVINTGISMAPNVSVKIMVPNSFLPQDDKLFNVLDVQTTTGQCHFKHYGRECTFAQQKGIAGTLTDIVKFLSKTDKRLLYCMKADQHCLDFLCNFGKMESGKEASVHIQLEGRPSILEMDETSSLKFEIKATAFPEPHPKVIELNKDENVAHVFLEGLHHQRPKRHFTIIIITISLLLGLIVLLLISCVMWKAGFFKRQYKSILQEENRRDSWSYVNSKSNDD
T1 sequence (P09055 21-798): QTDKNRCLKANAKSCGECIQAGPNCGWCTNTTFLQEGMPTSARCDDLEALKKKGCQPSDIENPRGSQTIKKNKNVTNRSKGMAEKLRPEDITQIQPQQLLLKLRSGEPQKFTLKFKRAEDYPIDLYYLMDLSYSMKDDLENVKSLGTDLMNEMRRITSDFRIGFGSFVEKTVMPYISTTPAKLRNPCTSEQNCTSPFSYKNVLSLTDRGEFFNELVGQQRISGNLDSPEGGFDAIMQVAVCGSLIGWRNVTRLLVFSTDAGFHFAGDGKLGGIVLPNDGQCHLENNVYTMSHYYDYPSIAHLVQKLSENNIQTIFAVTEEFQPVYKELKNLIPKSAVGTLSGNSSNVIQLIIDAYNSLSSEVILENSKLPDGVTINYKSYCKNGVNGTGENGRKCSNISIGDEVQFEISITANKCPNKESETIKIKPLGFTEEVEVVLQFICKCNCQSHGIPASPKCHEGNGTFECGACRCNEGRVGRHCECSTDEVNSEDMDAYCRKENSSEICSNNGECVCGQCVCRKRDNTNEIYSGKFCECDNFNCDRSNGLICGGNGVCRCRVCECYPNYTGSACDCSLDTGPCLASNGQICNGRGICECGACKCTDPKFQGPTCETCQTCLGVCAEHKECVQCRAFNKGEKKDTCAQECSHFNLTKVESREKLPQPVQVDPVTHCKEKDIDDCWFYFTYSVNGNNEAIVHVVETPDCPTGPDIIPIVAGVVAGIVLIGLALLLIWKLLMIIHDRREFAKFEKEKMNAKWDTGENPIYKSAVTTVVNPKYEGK
Description: [^11C]HCA2969 binding to VLA-4 in mouse monocytes (saturation, Scatchard analysis). The conditions noted are these: 2 × 10^6 spleen monocytes. Here is the method: Monocytes collected from a mouse were used to evaluate the binding of a [^11C]HCA2969 to VLA-4.
2 × 10^6 monocytes collected from a spleen of a mouse and a [^11C]HCA2969 synthesized in the above section 1 were added to buffer (10mM Tris pH 7.5, 0.1% BSA, 150 mM NaCl, 2 mM MnCl2, 2 mM D-glucose) at concentrations of 0.025 nM, 0.1 nM, 0.4 nM, 1.6 nM, 6.4 nM and 25.6 nM, respectively, and mixed. After mixing, the cells were incubated at room temperature for 20 minutes and washed 2 times with buffer (10mM Tris pH 7.5, 0.1% BSA, 150 mM NaCl, 2 mM MnCl2, 2 mM D-glucose). Radiation dose was measured for the washed cells using a scintillation counter.

The subject of data set [4] is autoimmune myocarditis model rat. Description: Detection of autoimmune myocarditis by PET/CT imaging with [^11C]HCA2969 tracer in rats. It counts as in vivo, Lewis rats. The conditions noted are these: autoimmune myocarditis model rats at 3 weeks of induction; about 1 to 10 MBq intravenously. Here is the method: An autoimmune myocarditis model rat was prepared by administering 10 mg/ml of Pig Cardiac Myosin (purified in-house from pig heart) and Adjuvant (CFA 10 mg/ml; Chondrex, Inc., 7002) to Lewis rats (male, 8 weeks old). A day of administration of the Pig Cardiac Myosin was set as Day 0. In this model, myocarditis reached its climax on Day 21. […] On Day 12, infiltration of inflammatory cells into cardiac muscle tissue began, and, on Day 19, more intense infiltration of the inflammatory cells was observed. On Day 25, destruction of the cardiac muscle tissue due to inflammation was observed.
In autoimmune myocarditis model rat prepared in the above section 2, a [^11C]HCA2969 tracer at about 1 to 10 MBq was administered intravenously via a tail vein under inhalation anesthesia with isoflurane at 3 weeks of induction, which is the climax of myocarditis, followed by PET/CT imaging.

A further data set has as its system EAE model mice. The conditions noted are these: mouse, in vivo.
Where [5] appears, read: echocardiography at 28 days of age, diet containing 1% of AJM300, t-test p=0.0231.

By Kd is commonly meant the free concentration of one partner at which half of the binding sites on the other are occupied at equilibrium, for simple one-to-one binding.

Molecules are shown by their SMILES.

For the compound `COC(=O)[C@H](Cc1ccc(-n2c(=O)c3cc(N(C)C)ccc3n(C)c2=O)cc1)NC(=O)c1c(Cl)cccc1Cl` [AJM300, carotegrast methyl], the “cardiac function (left ventricular contractile performance and heart rate)” value in data set [1] is “no effect”. Further, in the data set on MRL-Pdcd1-/- mice (setting [5]), the heart rate result is reported as “significantly ameliorated bradycardia” and the “left ventricular contractile performance: % Fractional Shortening (%)” value is reported as “significantly improved”. For the same compound, in the data set on MRL-Pdcd1-/- mice (mixed diet containing 1% of AJM300 from 2 weeks of age, Log-rank test p=0.0022), the “Survival period (Kaplan-Meier)” value was “significantly prolonged”. Also, in the data set on PD1-/- mice (treated PD1-/- mice compared to the placebo group, diet containing 1% AJM300 day 14 to day 28, or antibody 10 mg/kg intraperitoneally on days 14 and 21), the “accumulation of the [^11C]HCA2969 tracer in the cardiac region” value is given as “lower”.
On to `CN(C)c1ccc2c(c1)c(=O)n(-c1ccc(CC(NC(=O)c3c(Cl)cccc3Cl)C(=O)O)cc1)c(=O)n2[11CH3]` (stereo not shown) [[^11C]HCA2969], for which the radiochemical purity in data set [2] is at least 90%. Further, the “tracer accumulation in hearts” value in data set [3] (two MRL-Pdcd1-/- mice) is on record as “observed”; in [3] (two wild-type mice), “no tracer accumulation”; in data set [4], “no tracer accumulation”. The SUV mean entry in the data set on EAE mice was “high accumulation”. The SUV median result with EAE mice was “high accumulation”. At VLA-4, this compound came in with a Bmax of 81.85 Bq. Besides, the Kd at VLA-4 (0.025 nM to 25.6 nM, room temperature, 20 minutes, read-out: equilibrium dissociation constant Kd) is 0.16 nM. For the same compound, the “accumulation of the tracer signal in the brain” value with EAE model mice was “increasing trend”. In addition, the “accumulation of the tracer signal in the spinal cord” value in the data set on EAE model mice is reported as “significant increase”. In the data set with PD1-/- mice (PD1-/- mouse, untreated, day 28, imaging twenty minutes after the injection), the “accumulation of the [^11C]HCA2969 tracer in the cardiac region” value is on record as “observed”.
